Experimental data reported in US9724352B2, “Pyrrolo[2,1-F[1,2,4]triazine compounds, preparation methods and applications thereof” (Shanghai Institute of Materia Medica, Chinese Academy of …, priority 2012, dated 2017).

Assays:
Type in all cases: cell-based
B-BT474 = assay: Proliferation of human cancer cell panel; conditions: read-out: inhibitory activity on proliferation
From the text: (§1) I-30 and I-33 were selected to test their activity on the proliferation of human cancer cells originated from different tissue types.

[1] = tested on: colorectal cancer cells C-LOVO; assay: Proliferation of human cancer cell panel; conditions: read-out: inhibitory activity on proliferation
From the text: as §1

[2] = tested on: endometrial cancer cells E-RL95-2; assay: Proliferation of human cancer cell panel; conditions: read-out: inhibitory activity on proliferation
From the text: as §1

P-PC-3 = assay: Proliferation of human cancer cell panel; conditions: read-out: inhibitory activity on proliferation
From the text: as §1

LG-NCI-H460 = assay: Proliferation of human cancer cell panel; conditions: read-out: inhibitory activity on proliferation
From the text: as §1

[3] = tested on: rhabdomyosarcoma cells S-RH30; assay: Proliferation of human cancer cell panel; conditions: read-out: inhibitory activity on proliferation
From the text: as §1

LG-NCI-H23 = assay: Proliferation of human cancer cell panel; conditions: read-out: inhibitory activity on proliferation
From the text: as §1

[4] = tested on: gastric cancer cells G-MKN-45; assay: Proliferation of human cancer cell panel; conditions: read-out: inhibitory activity on proliferation
From the text: as §1

[5] = tested on: colon cancer cells C-HCT-116; assay: Proliferation of human cancer cell panel; conditions: read-out: inhibitory activity on proliferation
From the text: as §1

[6] = tested on: hepatoma cells L-BEL-7402; assay: Proliferation of human cancer cell panel; conditions: read-out: inhibitory activity on proliferation
From the text: as §1

O-SKOV-3 = assay: Proliferation of human cancer cell panel; conditions: read-out: inhibitory activity on proliferation
From the text: as §1

[7] = tested on: PI3K signaling in human rhabdomyosarcoma Rh30 cells; assay: PI3K signaling after IGF-1 stimulation (Western blot), Rh30; conditions: compound 1 h, IGF-1 10 minutes
Procedure: (§2) Rh30 and U87MG cells were seeded in 12-well plates at 2×10^5 cells/well. On the next day, cells were incubated in fresh serum-free culture media subjected to starvation for 24 hours. Cells were then treated with different concentrations of compound I-33 for 1 h. After stimulated with IGF-1 for 10 minutes, the lysed cells were collected, and 4×SDS loading buffer [200 mM Tris.Cl (pH 6.8), 400 mM DTT, 8% SDS (sodium dodecyl sulfate), 0.4% bromophenol blue, 40% glycerol] was added. The cell lysates were boiled for 10 minutes. Aliquot was loaded on polyacrylamide gel and electrophoresis was performed in Tris-glycine electrophoresis buffer (25 mM Tris, 250 mM glycine, 0.1% SDS) at 80-100 V for 2-2.5 hours. The proteins were transformed from gel to nitrocellulose filter membrane by using semidry method. The filter membrane was blocked with blocking solution containing 5% skim milk powder (5% skim milk powder, 20 mM Tris-HCl (pH 7.2-7.4), 150 mM NaCl, 0.1% (v/v) Tween20) in a shaker at room temperature for 2 hours. Then specific primary antibody was added and hybridized at 4° C. overnight. The membrane was washed by washing buffer [20 mM Tris-HCl (pH 7.2-7.4), 150 mM NaCl, 0.1% (v/v) Tween20] for three times at room temperature, 15 minutes each time. […]

[8] = tested on: PI3K signaling in human glioma U87MG cells; assay: PI3K signaling after IGF-1 stimulation (Western blot), U87MG; conditions: compound 1 h, IGF-1 10 minutes
Procedure: as §2

KYSE450 = assay: Proliferation of human esophagus cancer cells
From the text: (§3) Compounds BYL719 (shown below), CYH33 (compound I-33) and I-27 were selected to test their activity on the proliferation of 11 species of human esophagus cancer cells.
(§4) The results reported in FIG. 3 were the average GI50 value and SD value of three experiments. The results were arranged according to the GI50 value of CYH33.

KYSE510 = assay: Proliferation of human esophagus cancer cells
From the text: as §3, §4

KYSE70 = assay: Proliferation of human esophagus cancer cells
From the text: as §3, §4

COLO680N = assay: Proliferation of human esophagus cancer cells; conditions: COLO-680N
From the text: as §3, §4

KYSE180 = assay: Proliferation of human esophagus cancer cells
From the text: as §3, §4

KYSE30 = assay: Proliferation of human esophagus cancer cells
From the text: as §3, §4

KYSE140 = assay: Proliferation of human esophagus cancer cells
From the text: as §3, §4

KYSE410 = assay: Proliferation of human esophagus cancer cells
From the text: as §3, §4

KYSE150 = assay: Proliferation of human esophagus cancer cells
From the text: as §3, §4

Detroit 562 = assay: Proliferation of human esophagus cancer cells
From the text: as §3, §4

KYSE2 = assay: Proliferation of human esophagus cancer cells
From the text: as §3, §4

IC50 (B-BT474): 62 nM
IC50 [1]: 1330 nM
IC50 [2]: 5300 nM
IC50 (P-PC-3): 1580 nM
IC50 (LG-NCI-H460): 1520 nM
IC50 [3]: 486 nM
IC50 (LG-NCI-H23): 730 nM
IC50 [4]: 3400 nM
IC50 [5]: 10000 nM
IC50 [6]: 4900 nM
IC50 (O-SKOV-3): 277 nM
GI50 (KYSE450; KYSE-450, KYSE450, 1st experiment): 1380 nM
GI50 (KYSE450; KYSE-450, KYSE450, 2nd experiment): 803 nM
GI50 (KYSE450; KYSE-450, KYSE450, 3rd experiment): 938 nM
GI50 (KYSE450; KYSE-450, KYSE450, mean of three experiments): 1040 nM
GI50 (KYSE510; KYSE-510, KYSE510, 1st experiment): 55 nM
GI50 (KYSE510; KYSE-510, KYSE510, 2nd experiment): 6 nM
GI50 (KYSE510; KYSE-510, KYSE510, 3rd experiment): 38 nM
GI50 (KYSE510; KYSE-510, KYSE510, mean of three experiments): 33 nM
GI50 (KYSE70; KYSE-70, KYSE70, 1st experiment): 33 nM
GI50 (KYSE70; KYSE-70, KYSE70, 2nd experiment): 27 nM
GI50 (KYSE70; KYSE-70, KYSE70, 3rd experiment): 29 nM
GI50 (KYSE70; KYSE-70, KYSE70, mean of three experiments): 30 nM
GI50 (COLO680N; 1st experiment): 743 nM
GI50 (COLO680N; 2nd experiment): 530 nM
GI50 (COLO680N; 3rd experiment): 701 nM
GI50 (COLO680N; mean of three experiments): 658 nM
GI50 (KYSE180; KYSE-180, KYSE180, 1st experiment): 1 nM
GI50 (KYSE180; KYSE-180, KYSE180, 2nd experiment): 11 nM
GI50 (KYSE180; KYSE-180, KYSE180, 3rd experiment): 16 nM
GI50 (KYSE180; KYSE-180, KYSE180, mean of three experiments): 9 nM
GI50 (KYSE30; KYSE-30, KYSE30, 1st experiment): 2640 nM
GI50 (KYSE30; KYSE-30, KYSE30, 2nd experiment): 566 nM
GI50 (KYSE30; KYSE-30, KYSE30, 3rd experiment): 531 nM
GI50 (KYSE30; KYSE-30, KYSE30, mean of three experiments): 1250 nM
GI50 (KYSE140; KYSE-140, KYSE140, 1st experiment): 484 nM
GI50 (KYSE140; KYSE-140, KYSE140, 2nd experiment): 804 nM
GI50 (KYSE140; KYSE-140, KYSE140, 3rd experiment): 492 nM
GI50 (KYSE140; KYSE-140, KYSE140, mean of three experiments): 593 nM
GI50 (KYSE410; KYSE-410, KYSE410, 1st experiment): 146 nM
GI50 (KYSE410; KYSE-410, KYSE410, 2nd experiment): 50 nM
GI50 (KYSE410; KYSE-410, KYSE410, 3rd experiment): 88 nM
GI50 (KYSE410; KYSE-410, KYSE410, mean of three experiments): 95 nM
GI50 (KYSE150; KYSE-150, KYSE150, 1st experiment): 40 nM
GI50 (KYSE150; KYSE-150, KYSE150, 2nd experiment): 62 nM
GI50 (KYSE150; KYSE-150, KYSE150, 3rd experiment): 38 nM
GI50 (KYSE150; KYSE-150, KYSE150, mean of three experiments): 47 nM
GI50 (Detroit 562; Detroit 562, Detroit 562, 1st experiment): 718 nM
GI50 (Detroit 562; Detroit 562, Detroit 562, 2nd experiment): 707 nM
GI50 (Detroit 562; Detroit 562, Detroit 562, 3rd experiment): 769 nM
GI50 (Detroit 562; Detroit 562, Detroit 562, mean of three experiments): 731 nM
GI50 (KYSE2; KYSE2, 1st experiment): 24 nM
GI50 (KYSE2; KYSE2, 2nd experiment): 28 nM
GI50 (KYSE2; KYSE2, 3rd experiment): 97 nM
GI50 (KYSE2; KYSE2, mean of three experiments): 50 nM
Structure (SMILES): COC(=O)Nc1cc(C(F)(F)F)c(-c2nc(N3CCOCC3)c3cc(CN4CCN(S(C)(=O)=O)CC4)cn3n2)cn1 [Compound I-33, Methyl (5-(6-((4-(methylsulfonyl)piperazin-1-yl)methyl)-4-morpholinopyrrolo[2,1-f][1,2,4]triazin-2-yl)-4-(trifluoromethyl)pyridin-2-yl)carbamate]
transduction of PI3K signaling [7]: significantly inhibited
transduction of PI3K signaling [8]: significantly inhibited
